Results taken from ChEMBL document CHEMBL1649554, “Specific therapeutic schemes of omeprazole affect the orientation of Helicobacter pylori” (Antimicrob Agents Chemother, 2009).
Active and inactive are the calls of the source. No cut-off for these calls is given here.

Legend:
[1] = tested on: Helicobacter pylori; test: Antibacterial activity against Helicobacter pylori SS1 infected in Mongolian gerbils assessed as bacterial density in mucus in 0 to 15 um above the Juxtamucosal layer at 100 uM, ip administered as single dose through dialysis measured after 90 mins post last dose; format: functional
[2] = tested on: Helicobacter pylori; test: Antibacterial activity against Helicobacter pylori SS1 infected in Mongolian gerbils assessed as bacterial orientation in central layer at 0.25 mg, ip administered as two subsequent doses in 8 hrs dosing interval; format: functional, organism-based
[3] = tested on: Helicobacter pylori; test: Antibacterial activity against Helicobacter pylori SS1 infected in Mongolian gerbils assessed as bacterial orientation in luminal mucus layer at 35 ug/ml administered as single dose in 8 hrs dosing interval; format: functional, organism-based
[4] = tested on: Helicobacter pylori; test: Antibacterial activity against Helicobacter pylori SS1 infected in Mongolian gerbils assessed as bacterial orientation in central layer at 35 ug/ml administered as single dose in 8 hrs dosing interval; format: functional, organism-based
[5] = Cmax in Mongolian gerbils plasma at 0.5 mg, ip; format: ADME, organism-based, Meriones unguiculatus; design: dose 0.5 mg, route intraperitoneal; details: gerbil
[6] = tested on: Helicobacter pylori; test: Antibacterial activity against Helicobacter pylori SS1 infected in Mongolian gerbils assessed as bacterial density in mucus in luminal mucus layer at 0.25 mg, ip administered as two doses in 24 hrs dosing interval measured after 90 mins post last dose (reference value: 60+/-50 bacteria per nl of mucus); format: functional
[7] = tested on: Helicobacter pylori; test: Antibacterial activity against Helicobacter pylori SS1 infected in Mongolian gerbils assessed as bacterial density in mucus in luminal mucus layer at 0.25 mg, ip followed by second dose administered as solvent in 24 hrs dosing interval measured after 90 mins post last dose (reference value: 60+/-50 bacteria per nl of mucus); format: functional
[8] = tested on: Helicobacter pylori; test: Antibacterial activity against Helicobacter pylori SS1 infected in Mongolian gerbils assessed as bacterial density in mucus in luminal mucus layer at 0.25 mg, ip administered as two doses in 8 hrs dosing interval measured after 90 mins post last dose (reference value: 60+/-50 bacteria per nl of mucus); format: functional
[9] = tested on: Helicobacter pylori; test: Antibacterial activity against Helicobacter pylori SS1 infected in Mongolian gerbils assessed as bacterial density in mucus in luminal mucus layer at 0.25 mg, ip administered as two doses of solvent in 24 hrs dosing interval measured after 90 mins post last dose (reference value: 60+/-50 bacteria per nl of mucus); format: functional
[10] = tested on: Helicobacter pylori; test: Antibacterial activity against Helicobacter pylori SS1 infected in Mongolian gerbils assessed as bacterial density in mucus in central mucus layer at 0.25 mg, ip administered as two doses in 8 hrs dosing interval measured after 90 mins post last dose (reference value: 90+/-60 bacteria per nl of mucus); format: functional
[11] = tested on: Helicobacter pylori; test: Antibacterial activity against Helicobacter pylori SS1 infected in Mongolian gerbils assessed as decrease in bacterial density in mucus in 15 to 25 um above the Juxtamucosal layer at 0.25 mg, ip administered as single dose for 5 days measured after 90 mins post last dose; format: functional; design: scale not given: the % may be the effect or the level left
[12] = tested on: Helicobacter pylori; test: Antibacterial activity against Helicobacter pylori SS1 infected in Mongolian gerbils assessed as bacterial density in mucus in 15 to 25 um above the Juxtamucosal layer at 0.25 mg, ip followed by second dose administered as solvent in 24 hrs dosing interval measured after 90 mins post last dose (reference value: 2280+/-430 bacteria per nl of mucus); format: functional
[13] = tested on: Helicobacter pylori; test: Antibacterial activity against Helicobacter pylori SS1 infected in Mongolian gerbils assessed as bacterial density in mucus in 15 to 25 um above the Juxtamucosal layer at 0.25 mg, ip administered as two doses of solvent in 24 hrs dosing interval measured after 90 mins post last dose (reference value: 2280+/-430 bacteria per nl of mucus); format: functional
[14] = tested on: Helicobacter pylori; test: Antibacterial activity against Helicobacter pylori SS1 infected in Mongolian gerbils assessed as bacterial density in mucus in 15 to 25 um above the Juxtamucosal layer at 20 uM, ip administered as single dose through dialysis measured after 90 mins post last dose (reference value: 2280+/-430 bacteria per nl of mucus); format: functional
[15] = tested on: Helicobacter pylori; test: Antibacterial activity against Helicobacter pylori SS1 infected in Mongolian gerbils assessed as decrease in bacterial density in mucus in 0 to 15 um above the Juxtamucosal layer at 0.25 mg, ip administered as single dose for 5 days measured after 90 mins post last dose; format: functional; design: scale not given: the % may be the effect or the level left
[16] = tested on: Helicobacter pylori; test: Antibacterial activity against Helicobacter pylori SS1 infected in Mongolian gerbils assessed as bacterial density in mucus in 0 to 15 um above the Juxtamucosal layer at 0.25 mg, ip administered as two doses in 24 hrs dosing interval measured after 90 mins post last dose (reference value: 4560+/-400 bacteria per nl of mucus); format: functional
[17] = tested on: Helicobacter pylori; test: Antibacterial activity against Helicobacter pylori SS1 infected in Mongolian gerbils assessed as bacterial density in mucus in 0 to 15 um above the Juxtamucosal layer at 0.25 mg, ip administered as two doses of solvent in 24 hrs dosing interval measured after 90 mins post last dose (reference value: 4560+/-400 bacteria per nl of mucus); format: functional
[18] = tested on: Helicobacter pylori; test: Antibacterial activity against Helicobacter pylori SS1 infected in Mongolian gerbils assessed as bacterial density in mucus in 0 to 15 um above the Juxtamucosal layer at 20 uM, ip administered as single dose through dialysis measured after 90 mins post last dose (reference value: 4560+/-400 bacteria per nl of mucus); format: functional
[19] = Cmax in Mongolian gerbils plasma; format: ADME, Meriones unguiculatus; details: gerbil
[20] = tested on: Helicobacter pylori; test: Antibacterial activity against Helicobacter pylori SS1 infected in Mongolian gerbils assessed as bacterial disorientation in 0 to 15 um above the Juxtamucosal layer at 0.25 mg, ip administered as two doses in 24 hrs dosing interval measured after 90 mins post last dose; format: functional, organism-based
[21] = tested on: Helicobacter pylori; test: Antibacterial activity against Helicobacter pylori SS1 infected in Mongolian gerbils assessed as bacterial disorientation in luminal mucus layer at 0.25 mg, ip administered as two doses in 8 hrs dosing interval measured after 90 mins post last dose; format: functional, organism-based
[22] = tested on: Helicobacter pylori; test: Antibacterial activity against Helicobacter pylori SS1 infected in Mongolian gerbils assessed as bacterial disorientation in 15 to 25 um above the Juxtamucosal layer at 0.25 mg, ip followed by second dose administered as solvent in 24 hrs dosing interval measured after 90 mins post last dose; format: functional, organism-based
[23] = tested on: Helicobacter pylori; test: Antibacterial activity against Helicobacter pylori SS1 infected in Mongolian gerbils assessed as bacterial disorientation in luminal mucus layer at 0.25 mg, ip administered as two doses of solvent measured after 90 mins post last dose (reference value: 4560+/-400 bacteria per nl of mucus); format: functional, organism-based
[24] = tested on: Helicobacter pylori; test: Antibacterial activity against Helicobacter pylori SS1 infected in Mongolian gerbils assessed as bacterial disorientation in 15 to 25 um above the Juxtamucosal layer at 0.25 mg, ip administered as two doses of solvent measured after 90 mins post last dose (reference value: 4560+/-400 bacteria per nl of mucus); format: functional, organism-based
[25] = tested on: Helicobacter pylori; test: Antibacterial activity against Helicobacter pylori SS1 infected in Mongolian gerbils assessed as bacterial disorientation in luminal mucus layer at 20 uM, ip administered as single dose through dialysis measured after 90 mins post last dose; format: functional, organism-based
[26] = tested on: Helicobacter pylori; test: Antibacterial activity against Helicobacter pylori SS1 infected in Mongolian gerbils assessed as bacterial disorientation in 15 to 25 um above the Juxtamucosal layer at 20 uM, ip administered as single dose through dialysis measured after 90 mins post last dose; format: functional, organism-based
[27] = tested on: Helicobacter pylori; test: Antibacterial activity against Helicobacter pylori SS1 infected in Mongolian gerbils assessed as bacterial density in mucus in luminal mucus layer at 100 uM, ip administered as single dose through dialysis measured after 90 mins post last dose; format: functional

SMILES: COc1ccc2[nH]c([S+]([O-])Cc3ncc(C)c(OC)c3C)nc2c1 (configuration not stated) [OMEPRAZOLE]
- Activity [1]: 570 nL⁻¹
- Activity [2]: inactive
- Activity [3]: inactive
- Activity [4]: inactive
- Cmax [5]: 20 µM
- Activity [6]: 120 nL⁻¹
- Activity [7]: 50 nL⁻¹
- Activity [8]: 30 nL⁻¹
- Activity [9]: 70 nL⁻¹
- Activity [10]: 30 nL⁻¹
- Activity [11]: 5%
- Activity [12]: 2030 nL⁻¹
- Activity [13]: 2260 nL⁻¹
- Activity [14]: 2010 nL⁻¹
- Activity [15]: 5%
- Activity [16]: 3310 nL⁻¹
- Activity [17]: 5740 nL⁻¹
- Activity [18]: 5050 nL⁻¹
- Cmax [19]: 10 µM
- Activity [20]: Active
- Activity [21]: inactive
- Activity [22]: inactive
- Activity [23]: inactive
- Activity [24]: inactive
- Activity [25]: inactive
- Activity [26]: inactive
- Activity [27]: 60 nL⁻¹
